# Laboratory results: patent US9452154B2, “Methods for treating HCV” (Gilead Sciences, Inc., priority 2010, dated 2016)
# Several values for one entry are separate records, joined by “and”; a condition that tells them apart may be missing. Equal values may be shown once. Read-outs that look alike come from different tables or passages of the source. Marks after values point to notes of the source that are not given here.
# Assays:
# [1] = system: NS3 GT1a mutant replicons; format: cell-based, HCV
# Protocol: (§1) GT1b and GT1a replicons carrying Renilla Luciferase reporter were used to generate the mutant replicons. The mutations were introduced into the replicon construct by site-directed mutagenesis and confirmed by sequencing. Mutant replicon RNAs were generated from DNA by in vitro transcription and transfected into Huh-7 Lunet or C1 cells
# (§2) Compounds were serially diluted 1:3 in 100% DMSO (Sigma). These serial dilutions were added to the cells at a 1:200 dilution to achieve a final concentration of 0.5% DMSO in a total volume of 200 μL. […] EC50 values were calculated using Prism.
# (§3) For comparison, a fold change of 0-3 is considered “sensitive”, a fold change of 3-10 is considered “low”, a fold change of 10-50 is considered “medium” and a fold change of greater than […] is considered “high”.
# [2] = system: NS3 GT1b mutant replicons; format: cell-based, HCV
# Protocol: as §1, §2, §3
# [3] = system: GT1b and GT1a mutant replicons; experiment: Biological Example 8: summary of cross resistance of mutant replicons; format: cell-based, HCV
# Protocol: as §1, §2, §3
# [4] = system: HCV genotype 1a replicon; experiment: Biological Example 3: HCV genotype 1a replicon assay, EC50; format: cell-based; conditions: IFN-α in Units (U) per milliliter (mL)
# Protocol: The HCV genotype 1a replicon cell line used in this study was described previously. The cells were grown in cell culture medium containing Dulbecco's Modified Eagle Medium (DMEM) with GlutaMAX (Gibco, Carlsbad, Calif., Cat#10569-044), supplemented with 10% FBS (HyClone, Logan, Utah, Cat#SH30071.03), 100 Units/mL Penicillin, 100 μg/mL Streptomycin (Gibco, Carlsbad, Calif., Cat#15140-122), and 0.1 mM non-essential amino acids (Gibco, Carlsbad, Calif., Cat#11140-050). Replicon cells were maintained in 0.5 mg/mL Geneticin (Invitrogen, Carlsbad, Calif., Cat#10131-035) to prevent the loss of HCV replicon. The cells were passaged every 3-4 days before reaching confluency.
# (§4) [formula] where XC is the fluorescence signal from the compound-treated well; MB is the average fluorescence signal from puromycin-treated wells; MD is the average fluorescence signal from DMSO-treated wells. The anti-HCV replication activity was determined by the luminescence signal generated from the reporter renilla luciferase of the HCV replicon. The percent inhibition on HCV replicon was calculated using equation 1, where XC is the luminescence signal from compound-treated well; MB is average luminescence signal from the ITMN-191-treated wells; MD is the average luminescence signal from DMSO-treated wells.
# (§5) Both CC50 and EC50 values were obtained using Pipeline Pilot 5.0 software package (Accelrys, San Diego, Calif.) by nonlinear regression fitting of experimental data to equation 2: […]
# [5] = system: HCV 1b replicon system; experiment: Biological Example 5: antiviral combination studies with Compound 6 (MacSynergy II); format: cell-based; conditions: in combination with Compound 6
# [6] = system: Huh-7 cells carrying a HCV genotype 1a replicon; experiment: Biological Example 3: cytotoxicity in combination studies (MacSynergy II); conditions: in combination with Compound 4
# [7] = system: Huh-7 cells carrying a HCV genotype 1a replicon; experiment: Biological Example 3: cytotoxicity (calcein AM), CC50; format: cell-based; conditions: HCV genotype 1a replicon cells; IFN-α in Units (U) per milliliter (mL)
# Protocol: The HCV replicon assay was a multiplex assay which can assess both cytotoxicity and anti-replicon activity from the same well. The CC50 assay was performed first.
# The cytotoxicity effect was determined by calcein AM conversion to fluorescent product. The percent cytotoxicity was calculated by equation 1:
# as §4, §5
# [8] = system: HCV genotype 1a replicon; experiment: Biological Example 3: antiviral combination studies with Compound 4 (MacSynergy II); conditions: in combination with Compound 4
substance,measurement,setting,value
IFN-α [reference compound],fold change in EC50 vs wild-type GT1a,[1]; mutant A156T,0.1 fold
same,fold change in EC50 vs wild-type GT1a,[1]; mutant D168A,1.4 fold
same,fold change in EC50 vs wild-type GT1a,[1]; mutant D168E,2.1 fold
same,fold change in EC50 vs wild-type GT1a,[1]; mutant D168G,0.8 fold
same,fold change in EC50 vs wild-type GT1a,[1]; mutant D168H,0.9 fold
same,fold change in EC50 vs wild-type GT1a,[1]; mutant D168N,1.1 fold
same,fold change in EC50 vs wild-type GT1a,[1]; mutant D168V,1.0 fold
same,fold change in EC50 vs wild-type GT1a,[1]; mutant D168Y,1.2 fold
same,fold change in EC50 vs wild-type GT1a,[1]; mutant R155I,0.6 fold
same,fold change in EC50 vs wild-type GT1a,[1]; mutant R155K,0.7 fold
same,fold change in EC50 vs wild-type GT1a,[1]; mutant R155K + L31M,0.2 fold
same,fold change in EC50 vs wild-type GT1a,[1]; mutant R155K + M28T,1.1 fold
same,fold change in EC50 vs wild-type GT1a,[1]; mutant R155K + Q30H + Y448H,1.9 fold
same,fold change in EC50 vs wild-type GT1a,[1]; mutant R155K + Q30R,1.6 fold
same,fold change in EC50 vs wild-type GT1a,[1]; mutant R155K + Y93H,0.3 fold
same,fold change in EC50 vs wild-type GT1a,"[1]; mutant R155K + Y488H (second line, r26)",0.7 fold
same,fold change in EC50 vs wild-type GT1a,[1]; mutant R155M,0.3 fold
same,fold change in EC50 vs wild-type GT1a,[1]; mutant R155S,0.1 fold
same,fold change in EC50 vs wild-type GT1a,[1]; mutant R155T,0.2 fold
same,fold change in EC50 vs wild-type GT1a,[1]; mutant R155W,0.6 fold
same,fold change in EC50 vs wild-type GT1a,[1]; mutant R155k + Q30H,1.4 fold
same,fold change in EC50 vs wild-type GT1b,[2]; mutant A156D,0.6 fold
same,fold change in EC50 vs wild-type GT1b,[2]; mutant A156G,1.1 fold
same,fold change in EC50 vs wild-type GT1b,[2]; mutant A156T,0.8 fold
same,fold change in EC50 vs wild-type GT1b,[2]; mutant A156V,0.9 fold
same,fold change in EC50 vs wild-type GT1b,[2]; mutant D168A,0.9 fold
same,fold change in EC50 vs wild-type GT1b,[2]; mutant D168E,0.9 fold
same,fold change in EC50 vs wild-type GT1b,[2]; mutant D168E + L31V + Y448H,0.7 fold
same,fold change in EC50 vs wild-type GT1b,[2]; mutant D168E + Y93H + Y448H,0.4 fold
same,fold change in EC50 vs wild-type GT1b,[2]; mutant D168G,0.6 fold
same,fold change in EC50 vs wild-type GT1b,[2]; mutant D168H,0.8 fold
same,fold change in EC50 vs wild-type GT1b,[2]; mutant D168N,1.0 fold
same,fold change in EC50 vs wild-type GT1b,[2]; mutant D168T,0.9 fold
same,fold change in EC50 vs wild-type GT1b,[2]; mutant D168V,1.5 fold
same,fold change in EC50 vs wild-type GT1b,[2]; mutant D168V + L31V + Y448H,0.5 fold
same,fold change in EC50 vs wild-type GT1b,[2]; mutant D168V + Y93H + Y448H,0.6 fold
same,fold change in EC50 vs wild-type GT1b,[2]; mutant D168Y,1.3 fold
same,fold change in EC50 vs wild-type GT1b,[2]; mutant L31V + D168E,1.3 fold
same,fold change in EC50 vs wild-type GT1b,[2]; mutant L31V + D168V,1.2 fold
same,fold change in EC50 vs wild-type GT1b,[2]; mutant R155C,0.7 fold
same,fold change in EC50 vs wild-type GT1b,[2]; mutant R155G,1.1 fold
same,fold change in EC50 vs wild-type GT1b,[2]; mutant R155K,1.5 fold
same,fold change in EC50 vs wild-type GT1b,[2]; mutant R155L,1.1 fold
same,fold change in EC50 vs wild-type GT1b,[2]; mutant R155Q,0.6 fold
same,fold change in EC50 vs wild-type GT1b,[2]; mutant R155W,0.5 fold
same,fold change in EC50 vs wild-type GT1b,[2]; mutant Y93H + D168E,1.1 fold
same,fold change in EC50 vs wild-type GT1b,[2]; mutant Y93H + D168V,0.7 fold
same,susceptibility of mutants,[3]; all single NS3 PI-resistant mutants,full susceptibility
same,susceptibility of mutants,"[3]; triple class mutants that confer resistance to PI, NS5A and Compound 1",susceptible
same,EC50,[4],1.4 ± 0.3^b U/mL
same,Antagonism Volume,[5],0.0 ± 0.0 nM^2
same,Interaction,[5],Minor Synergy
same,Synergy Volume,[5],32 nM^2 and 32 ± 1.4 nM^2
same,Antagonism Volume (cytotoxicity),[6],−7 ± 13 nM^2%
same,Interaction (cytotoxicity),[6],Additivity (Additivity: ≦25 and >−25 nM^2%)
same,Synergy Volume (cytotoxicity),[6],8 ± 12 nM^2%
same,CC50,[7],>50^b U/mL
same,Antagonism Volume,[8],0 ± 0 nM^2%
same,Interaction,[8],Additivity (Additivity: ≦25 and >−25 nM^2%)
same,Synergy Volume,[8],12 ± 6 nM^2%
